Data on two compounds can be found in patent US11420958B2, “Aryl and heteroaryl substituted indole compounds” (BRISTOL-MYERS SQUIBB COMPANY, priority 2017, dated 2022).

What all share (type): cell-based
The target of one experiment is human TLR9 (Homo sapiens (Human), UniProt Q9NR96). Description: TLR9 inhibition reporter assay (HEK-Blue, SEAP). The note with it: HEK-Blue cells overexpressing human TLR9, ODN2006 5 nM stimulation. An outline of the steps: (§1)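 HEK-Blue cells overexpressing the receptor carry a SEAP reporter under IFN-β minimal promoter with NF-κB/AP-1 sites. Compounds (0.05 nM–50 μM final) were preincubated 30 min at room temperature, then cells were stimulated with gardiquimod 7.5 μM (TLR7), R848 15.9 μM (TLR8) or ODN2006 5 nM (TLR9) for 22 h at 37 °C.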
Chain of human TLR9 (Q9NR96 26-1032): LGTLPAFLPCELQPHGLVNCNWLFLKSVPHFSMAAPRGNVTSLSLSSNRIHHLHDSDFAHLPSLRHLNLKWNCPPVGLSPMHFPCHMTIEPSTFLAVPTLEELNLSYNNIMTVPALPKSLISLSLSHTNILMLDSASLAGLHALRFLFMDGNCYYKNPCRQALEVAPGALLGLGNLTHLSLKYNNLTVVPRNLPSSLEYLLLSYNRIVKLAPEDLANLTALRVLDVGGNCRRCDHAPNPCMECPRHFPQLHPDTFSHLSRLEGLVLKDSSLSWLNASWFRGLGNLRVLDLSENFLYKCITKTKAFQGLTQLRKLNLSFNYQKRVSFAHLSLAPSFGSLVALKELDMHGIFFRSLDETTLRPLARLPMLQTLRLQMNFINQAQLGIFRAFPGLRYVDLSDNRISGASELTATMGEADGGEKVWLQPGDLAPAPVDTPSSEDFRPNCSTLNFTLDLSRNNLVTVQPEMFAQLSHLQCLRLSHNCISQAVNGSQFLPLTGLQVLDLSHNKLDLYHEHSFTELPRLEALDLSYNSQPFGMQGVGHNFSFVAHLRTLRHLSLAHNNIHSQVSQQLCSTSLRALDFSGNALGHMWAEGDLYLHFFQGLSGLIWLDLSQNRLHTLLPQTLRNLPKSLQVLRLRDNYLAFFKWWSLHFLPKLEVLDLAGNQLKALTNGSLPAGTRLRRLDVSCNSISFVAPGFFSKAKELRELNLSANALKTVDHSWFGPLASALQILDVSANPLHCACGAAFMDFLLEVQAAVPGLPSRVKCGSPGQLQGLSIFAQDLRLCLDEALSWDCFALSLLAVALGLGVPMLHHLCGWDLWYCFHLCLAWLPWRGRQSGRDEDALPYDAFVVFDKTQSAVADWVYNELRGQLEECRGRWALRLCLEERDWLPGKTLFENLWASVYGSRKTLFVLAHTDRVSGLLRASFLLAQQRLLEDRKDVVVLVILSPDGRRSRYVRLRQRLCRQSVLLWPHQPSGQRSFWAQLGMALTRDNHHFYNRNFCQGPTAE
In general terms: In a reporter assay the amount or activity of a reporter protein is the signal.

A further experiment has as its target human TLR7 (Homo sapiens (Human), UniProt Q9NYK1). Description: TLR7 inhibition reporter assay (HEK-Blue, SEAP). The conditions noted are these: HEK-Blue cells overexpressing human TLR7, gardiquimod 7.5 μM stimulation. An outline of the steps:
as §1

The next experiment concerns the target human TLR8 (Homo sapiens (Human), UniProt Q9NR97). Description: TLR8 inhibition reporter assay (HEK-Blue, SEAP). The conditions noted are these: HEK-Blue cells overexpressing human TLR8, R848 15.9 μM stimulation. An outline of the steps: as §1

Chain of human TLR7 (Q9NYK1 27-1049): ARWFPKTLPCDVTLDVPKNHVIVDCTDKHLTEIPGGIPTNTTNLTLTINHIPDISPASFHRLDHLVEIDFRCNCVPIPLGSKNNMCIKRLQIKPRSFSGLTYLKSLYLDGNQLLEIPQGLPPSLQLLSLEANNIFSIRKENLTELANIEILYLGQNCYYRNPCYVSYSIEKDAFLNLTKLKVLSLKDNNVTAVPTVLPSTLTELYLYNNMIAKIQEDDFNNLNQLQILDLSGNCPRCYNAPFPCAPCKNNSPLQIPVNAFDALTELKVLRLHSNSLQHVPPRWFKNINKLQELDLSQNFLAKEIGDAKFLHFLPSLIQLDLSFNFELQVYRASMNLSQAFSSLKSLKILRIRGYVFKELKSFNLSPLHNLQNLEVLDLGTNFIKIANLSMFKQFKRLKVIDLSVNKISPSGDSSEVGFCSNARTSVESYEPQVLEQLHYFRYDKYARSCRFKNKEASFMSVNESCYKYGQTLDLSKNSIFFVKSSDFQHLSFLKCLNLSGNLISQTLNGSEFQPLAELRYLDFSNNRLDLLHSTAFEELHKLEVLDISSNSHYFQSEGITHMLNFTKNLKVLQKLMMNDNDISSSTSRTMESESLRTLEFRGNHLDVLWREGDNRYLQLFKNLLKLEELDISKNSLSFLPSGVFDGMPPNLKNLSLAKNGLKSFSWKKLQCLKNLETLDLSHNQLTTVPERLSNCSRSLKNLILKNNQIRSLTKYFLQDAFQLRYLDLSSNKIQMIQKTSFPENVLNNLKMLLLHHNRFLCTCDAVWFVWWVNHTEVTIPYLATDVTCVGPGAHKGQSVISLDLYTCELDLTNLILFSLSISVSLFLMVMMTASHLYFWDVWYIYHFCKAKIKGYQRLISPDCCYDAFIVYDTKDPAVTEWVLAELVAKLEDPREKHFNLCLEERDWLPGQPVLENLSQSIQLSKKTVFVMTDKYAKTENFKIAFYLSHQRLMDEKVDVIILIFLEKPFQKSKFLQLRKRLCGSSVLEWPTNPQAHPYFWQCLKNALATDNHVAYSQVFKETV
Chain of human TLR8 (Q9NR97 27-1041): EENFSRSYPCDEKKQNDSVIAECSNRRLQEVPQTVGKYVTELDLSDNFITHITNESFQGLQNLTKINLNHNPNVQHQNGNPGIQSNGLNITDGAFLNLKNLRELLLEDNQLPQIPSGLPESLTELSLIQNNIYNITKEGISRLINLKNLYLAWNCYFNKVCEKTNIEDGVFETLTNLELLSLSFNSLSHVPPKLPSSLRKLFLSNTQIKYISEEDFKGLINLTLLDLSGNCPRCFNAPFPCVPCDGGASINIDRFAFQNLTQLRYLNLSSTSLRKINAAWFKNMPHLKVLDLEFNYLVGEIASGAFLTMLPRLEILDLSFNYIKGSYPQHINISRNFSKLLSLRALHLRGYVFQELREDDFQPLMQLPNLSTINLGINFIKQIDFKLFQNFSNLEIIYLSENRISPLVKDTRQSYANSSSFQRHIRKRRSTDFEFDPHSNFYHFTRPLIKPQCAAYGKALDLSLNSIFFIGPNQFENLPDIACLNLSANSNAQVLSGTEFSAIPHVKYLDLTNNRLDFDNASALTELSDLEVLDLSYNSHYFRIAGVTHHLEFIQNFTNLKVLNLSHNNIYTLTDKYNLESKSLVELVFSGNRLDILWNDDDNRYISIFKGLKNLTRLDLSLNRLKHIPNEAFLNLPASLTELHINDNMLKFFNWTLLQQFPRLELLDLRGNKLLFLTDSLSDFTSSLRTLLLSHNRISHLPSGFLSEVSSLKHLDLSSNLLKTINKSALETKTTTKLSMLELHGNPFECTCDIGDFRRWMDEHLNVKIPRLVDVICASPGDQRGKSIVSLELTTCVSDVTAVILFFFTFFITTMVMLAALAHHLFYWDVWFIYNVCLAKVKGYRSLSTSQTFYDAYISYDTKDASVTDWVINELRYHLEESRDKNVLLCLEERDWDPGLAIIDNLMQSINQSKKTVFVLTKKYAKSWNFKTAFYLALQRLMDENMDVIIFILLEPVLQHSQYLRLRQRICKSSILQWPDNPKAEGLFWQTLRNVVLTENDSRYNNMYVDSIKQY

`COc1ccc(-c2[nH]c3ccc(-c4ccc(C5=CCN(C6CCN(CC(C)C)CC6)CC5)cc4)cc3c2C)cc1OC` [Example 375, 2-(3,4-dimethoxyphenyl)-5-(4-(1-(1-isobutylpiperidin-4-yl)-1,2,3,6-tetrahydropyridin-4-yl)phenyl)-3-methyl-1H-indole]: the results for the IC50 against human TLR9, against human TLR7 and on human TLR8 were 291 nM, above 50000 nM and 12400 nM, respectively.
For `CC(C)c1c(-c2ccnc3[nH]ncc23)[nH]c2ccc(-c3nc4n(n3)CCN(C3CCN(C(C)C)CC3)C4)cc12` [Example 211, 2-(3-isopropyl-2-(1H-pyrazolo[3,4-b]pyridin-4-yl)-1H-indol-5-yl)-7-(1-isopropylpiperidin-4-yl)-5,6,7,8-tetrahydro-[1,2,4]triazolo[1,5-a]pyrazine], in that order: 1830 nM, 216 nM and 9.9 nM.
